Measured values: the supplement of paper PMC10307832

How the values were obtained:
Experiment in all cases: relative viability (nuclei count vs DMSO), 5 days (fraction); higher = more cells survive
[1] = compound: C1COCCN1CC2=CC(=O)C(=CO2)OCCCCCSC3=C4C=CC(=CC4=NC=C3)C(F)(F)F [EHT 1864] + COc1cccc2cc(-c3nc([C@H]4CC[C@H](C(=O)O)CC4)n4ncnc(N)c34)[nH]c12 [OSI-027] (partner 0.5 µM)
How it was run: (§1)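 The day after seeding in 1536-well plates, lung cancer cell lines were treated by pin tool with a single drug, or with a fixed anchor-drug dose together with five library-drug doses (not always all listed) in √10 steps. After 5 days, a combined fix-and-stain solution (final 0.05% Triton X-100, 1% formaldehyde, 1 ug/ml Hoechst) was added. Nuclei counted on 4× images gave relative viability as treated counts over vehicle counts, reported as the median of duplicate plates.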

[2] = compound: C1COCCN1CC2=CC(=O)C(=CO2)OCCCCCSC3=C4C=CC(=CC4=NC=C3)C(F)(F)F [EHT 1864] + CS(=O)(=O)CCNCc1ccc(-c2ccc3ncnc(Nc4ccc(OCc5cccc(F)c5)c(Cl)c4)c3c2)o1 [Lapatinib] (partner 2 µM)
How it was run: as §1

[3] = compound: C1COCCN1CC2=CC(=O)C(=CO2)OCCCCCSC3=C4C=CC(=CC4=NC=C3)C(F)(F)F [EHT 1864] + C[C@]1(O)C[C@@H](c2nc(-c3ccc4ccc(-c5ccccc5)nc4c3)c3c(N)nccn32)C1 [Linsitinib] (partner 1 µM)
How it was run: as §1

[4] = compound: C1COCCN1CC2=CC(=O)C(=CO2)OCCCCCSC3=C4C=CC(=CC4=NC=C3)C(F)(F)F [EHT 1864] + Cc1nc(NC(=O)N2CCC[C@H]2C(N)=O)sc1-c1ccnc(C(C)(C)C(F)(F)F)c1 [Alpelisib] (partner 2 µM)
How it was run: as §1

Cell Line	relative viability ([1]; first compound 0.04 µM)	relative viability ([1]; first compound 0.1265 µM)	relative viability ([1]; first compound 0.4 µM)	relative viability ([1]; first compound 1.265 µM)	relative viability ([1]; first compound 4 µM)	relative viability ([2]; first compound 0.04 µM)	relative viability ([2]; first compound 0.4 µM)	relative viability ([2]; first compound 1.265 µM)	relative viability ([2]; first compound 4 µM)	relative viability ([3]; first compound 0.04 µM)	relative viability ([3]; first compound 0.4 µM)	relative viability ([3]; first compound 1.265 µM)	relative viability ([3]; first compound 4 µM)	relative viability ([4]; first compound 0.04 µM)	relative viability ([4]; first compound 0.4 µM)	relative viability ([4]; first compound 1.265 µM)	relative viability ([4]; first compound 4 µM)	relative viability ([2]; first compound 0.1265 µM)	relative viability ([3]; first compound 0.1265 µM)	relative viability ([4]; first compound 0.1265 µM)
NCI-H23	0.511	0.352	0.673	0.523	0.563	0.927	1.05	0.938	0.928	0.522	0.443	0.59	0.551	0.664	0.781	0.738	0.807			
NCI-H322M	0.591	0.444	0.535	0.585	0.533	0.613	0.634	0.522	0.629	0.89	0.98	0.878	0.968	0.763	0.821	0.81	0.959	0.527	0.806	0.747
NCI-H358	0.842	0.745	0.863	0.799	0.685	0.477	0.441	0.413	0.434	0.759	0.738	0.794	0.639	0.798	0.877	0.965	0.837			
NCI-H460	0.678	0.576	0.649	0.621	0.552	0.891	0.975	0.845	0.885	0.76	0.747	0.624	0.845	0.427	0.475	0.444	0.486	0.897	0.603	0.57
NCI-H520	0.266	0.25	0.247	0.24	0.224	0.833	0.834	0.913	0.694	0.917	0.747	0.813	0.913	0.967	0.883	0.889	0.876	0.743	0.998	0.954
NCI-H596	0.716	0.651	0.803	0.572	0.529	1.16	1.12	1.01	1.09	1.06	0.989	0.906	0.964	0.524	0.506	0.434	0.514	0.968	1.11	0.529
NCI-H647	0.622	0.368	0.598	0.738	0.621	0.856	0.923	0.957	1.14	1.03	1.2	1.15	0.983	1.21	1.26	0.977	1.18	0.842	1.13	1.04
NCI-H650	0.53	0.354	0.546	0.531	0.49	0.797	1.33	1.07	0.989	0.94	1.01	0.947	0.884	1.05	1.23	1.02	1.09			
NCI-H661	0.735	0.587	0.659	0.711	0.597	0.429	0.511	0.429	0.503	0.603	0.535	0.512	0.449	0.596	0.527	0.465	0.531	0.488	0.516	0.672
NCI-H727	0.525	0.532	0.592	0.576	0.61	0.841	0.635		0.881	0.272	0.349		0.319	0.623	0.524		0.567	0.743	0.366	0.593
NCI-H838	0.371	0.313	0.395	0.376	0.425	0.91	0.979	0.938	0.932	0.977	1.08	1.05	1.01	0.969	0.988	0.921	0.827	0.799	0.889	0.881
NCI-H1355	0.417	0.289	0.409	0.397	0.396	1.02	0.889	1.02	1.04	0.781	0.718	0.72	0.77	0.766	0.699	0.856	0.89	0.819	0.667	0.624
NCI-H1395	0.649	0.515	0.683	0.621	0.696	1.04	1.05	1.01	0.861	1.02	0.957	1.16	1.02	1.54	1.01	0.967	1.38	0.877	0.982	0.942
NCI-H1437	0.852	0.916	0.813	0.722	0.703	0.793	0.678	0.636	0.62	0.905	0.974	0.776	0.655	0.988	0.899	0.805	0.652	0.723	0.917	1.04
NCI-H1563	0.735	0.796	0.763	0.701	0.699	1.01	0.953	0.949	0.813	1.17	1.24	1.17	0.94	0.853	1.04	0.96	0.805	0.986	1.3	1.03
NCI-H1651	0.704	0.675	0.75	0.647	0.69	0.856	0.843	0.824	0.912	1.07	0.992	0.931	0.996	0.917	0.949	0.967	0.878	0.788	0.885	0.876
